Patent publication EP0675728B1, “PRODUCTS AND METHODS FOR IMPROVING KE[…] TO THE DERMIS” (STATE OF OREGON BY AND THROUGH OREGON STATE BOARD OF HIGHER …, priority 1992, dated 1994)

What was measured:
[1] = test system: keratinocytes; conditions: just-subconfluent keratinocyte cultures, 60 minutes' incubation; BM165 mAb 50 µg/mL, 10-mM EDTA
Method: Cells were grown in Keratinocyte Growth Medium (KGM) containing 0.15 mM CaCl2 and subcultured according to the manufacturer's instructions (Clonetics). For most immunocytochemical experiments, first- or second-passage cells were grown in glass or plastic chamber slides (Lab-Tek) or on glass cover slips to approximately 80 percent confluency. For large-scale collection, spent-media cells were grown in 150-cm^2 tissue culture dishes and fed three times per week with 15 mL fresh media.
Keratinocytes were grown to near confluence and either fixed immediately (FIGS. 4B and 4D) or washed with PBS and incubated with BM165 mAb (50 µg/mL) followed by 5-nm gold-conjugated secondary antibody prior to fixation (FIGS. 4A and 4C).
To further pursue these observations, just-subconfluent keratinocyte cultures were separately incubated with purified BM165 mAb for 10 and 60 minutes. After incubation, the cultures were photographed (FIGS. 5A-F). Purified mAbs in PBS, PBS alone, or 10-mM EDTA were incubated with keratinocytes in parallel. Parallel cultures were also incubated with anti-type-VII monoclonal IgG in PBS for the corresponding same length of time.

[2] = test system: Dermal fibroblasts
[3] = test system: secretion of kalinin

| Compound | rounding and detachment of the keratinocytes [1] | rounding and detachment of dermal fibroblasts [2] | secretion of kalinin into the medium [3] |
| --- | --- | --- | --- |
| O=C(O)CN(CCN(CC(=O)O)CC(=O)O)CC(=O)O [EDTA] | extensive rounding and detachment | rounded and detached | – |
| COc1cc2c(c(OC)c1OC)-c1ccc(OC)c(=O)cc1[C@@H](NC(C)=O)CC2 [colchicine] | – | – | inhibited |
